Reference: the NIST ThermoML archive (doi:10.1016/j.jct.2013.11.001)
Numbers after ± are expanded uncertainties.

Assay: cn = amount concentration of the nth substance listed, in mol/dm3
Conditions: 298.15 K, 101 kPa, Liquid, c1 = 0.1; for speed of sound: Sing-around technique in a fixed-path interferometer; for mass density: Vibrating tube method

Row | speed of sound [m/s] | mass density [kg/m3] | SMILES
1 | 1502 ± 1.2 | 998.575 ± 0.11 | CCCCCCCCCCCC[N+](C)(C)C.[Br-] [dodecyltrimethylammonium bromide] + O
2 | 1499.5 ± 1.2 | 998.003 ± 0.11 | CCCCCCCCCCCCCC[N+](C)(C)C.[Br-] [tetradecyltrimethylammonium bromide] + O
